# Laboratory results reported in patent US20240368664A1, “LIVE YEAST BIOSENSORS AND METHODS OF USE THEREOF” (priority 2021, published 2024).
# Like-named read-outs stand apart in the source and are kept apart here. Residues, ends and D or L forms follow the SMILES beside them. No end group written: not given here.
# Key:
# fungal cognate receptors = type: cell-based
# AfuSte2 [1] = type: cell-based, A. fumigatus
# [2] = test system: AfuSte2 (first member), ScSte2 (second member); type: cell-based, A. fumigatus
# AfuSte2 [3] = type: cell-based, A. fumigatus; remark: listed apart in the source
# AfuSte2 [4] = type: cell-based, Aspergillus fumigatus; details: nasal swab solution; 30° C. and room temperature
# Method: (left) and room temperature (right).
# To determine whether the yeast biosensor can detect the targeted pathogen analyte in the presence of the nasal swab solution. The yeast biosensor's ability to detect its cognate fungal biomarker in the presence of the nasal swab solution was tested. […] This experiment involved a biosensor containing an Ste2 homolog from Aspergillus fumigatus (AfuSte2) that produces lycopene in response to its cognate pheromone peptide (AfuPep). […] Experiments were carried out at yeast standard growth conditions, which include at 30° C.; experiments also needed to be conducted at at-home-like temperatures to ensure that the biosensor is viable and active in these settings. When incubated at room temperature, the yeast still produced an observable difference in lycopene compared to the water negative control (FIG. 24).
# AfuSte2 [5] = test system: AfuSte2
# CaSte2 [6] = details: CaSte2 (yTC384), no protease; Hill function best-fit ± standard error
# [7] = test system: CaSte2 with protease CaBar1
# [8] = test system: CaSte2 with protease CaBar1; details: read-out: "EC50" of the first response phase; biphasic dose-response, phase treated as separate Hill fit
# CaSte2 [9] = assay: CaSte2 biosensor with lycopene readout, without CaBar1 (yTC646); details: -CaBar1 strain; 50-300 nM peptide; 1-h preincubation, 7-h incubation
# [10] = test system: SjSte2 with peptide proteases; type: cell-based, Schizosaccharomyces japonicus; details: read-out: apparent EC50
# S. cerevisiae GPCR = molecular target: T1, S. cerevisiae GPCR (Saccharomyces cerevisiae, UniProt D6VTK4); assay: Aspergillus spp peptide/GPCR orthogonality matrix, S. cerevisiae GPCR; type: cell-based; details: 40 μM peptide
# T1 sequence (D6VTK4 whole entry, looked up): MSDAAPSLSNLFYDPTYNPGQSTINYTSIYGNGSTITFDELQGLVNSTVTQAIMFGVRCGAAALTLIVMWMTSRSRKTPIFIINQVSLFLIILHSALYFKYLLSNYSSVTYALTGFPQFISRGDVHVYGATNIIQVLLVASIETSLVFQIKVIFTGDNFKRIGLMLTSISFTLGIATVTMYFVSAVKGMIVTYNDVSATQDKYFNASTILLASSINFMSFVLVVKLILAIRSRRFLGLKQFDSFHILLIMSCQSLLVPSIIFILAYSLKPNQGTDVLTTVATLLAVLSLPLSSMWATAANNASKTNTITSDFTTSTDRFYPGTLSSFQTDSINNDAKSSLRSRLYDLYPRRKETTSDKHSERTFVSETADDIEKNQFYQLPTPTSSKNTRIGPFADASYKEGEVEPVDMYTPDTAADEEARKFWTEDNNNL
# Method: FIGS. 6A-6B show Aspergillus spp peptide cross-reactivity with Aspergillus spp GPCRs. […] The test concentration was set at 40 μM of a given peptide ligand.
# Next, 13 GPCRs of all genome-mined Aspergillus species, including A. fumigatus from Example 1 and S. cerevisiae, along with inducible fluorescent readout were integrated into optimized parent strain. S. cerevisiae was included to test cross-reactivity with S. cerevisiae GPCR and peptide, since this peptide/GPCR pair will be used for building multi-cellular amplification communities. Then, each strain was activated with all Aspergillus peptides and S. cerevisiae peptide (FIG. 6A). Most of the Aspergillus GPCRs were responsive to at least one peptide, except A. terreus, A. flavus/A. oryzae (same GPCR sequence), A. niger and A. nidulans which were not responsive to any tested peptide. […] The majority of peptides have the same sequence (A. fischeri, A. fumigatus, A. lentulus, A. novofumigatus, A. udagawae and A. viridinutans) and the other active peptides differ only in the third amino acid position from N-terminus (A. clavatus, A. flavus and A. oryzae).
# [11] = fine-tuned optimized strain (yTC453/pDR01)
# [12] = natural signaling pathway (yMJ194/pDR01)
compound,measurement,setting,value
CC(C)C[C@H](NC(=O)[C@H](Cc1c[nH]cn1)NC(=O)[C@H](CS)NC(=O)[C@@H](N)Cc1c[nH]c2ccccc12)C(=O)N1CCC[C@H]1C(=O)NCC(=O)N[C@@H](CCC(N)=O)C(=O)NCC(=O)N[C@@H](CS)C(=O)O [AfuPep] (H-WCHLPGQGC-OH; N-terminus and C-terminus assumed),activation of fungal cognate receptors by AfuPep,fungal cognate receptors,nor did AfuPep activate fungal cognate receptors
same,fluorescence intensity relative to background fluorescence,AfuSte2 [1],two-fold
same,fold lower AfuPep concentration at which receiver strain responds vs sender strain,[2],8 fold
same,LoD / color detection limit in liquid culture,AfuSte2 [3],50 nM
same,limit of detection (LoD) in liquid culture,AfuSte2 [3],~30 nM
same,time to faint visible color in culture pellets,AfuSte2 [3],one hour
same,time to obvious color change in liquid culture,AfuSte2 [3],two hours
same,lycopene production in the presence of human biospecimens,AfuSte2 [4],produces lycopene only when AfuPep is present
same,fold change of fluorescence readout compared to background,"AfuSte2 [5]; AfuSte2 on plasmid, inducible mCherry in optimized strain, FIG. 1B","around 4,000 fold"
same,EC50,AfuSte2 [5]; [11],~40 nM
same,activation fold change,AfuSte2 [5]; [11],"2,900 fold"
same,basal expression,AfuSte2 [5]; [11],practically zero
same,maximal activation,AfuSte2 [5]; [11],"~2,900 A.U."
same,EC50,AfuSte2 [5]; [12],~10 nM
same,activation fold change,AfuSte2 [5]; [12],19 fold
same,maximal activation,AfuSte2 [5]; [12],~450 A.U.
same,basal expression,AfuSte2 [5]; older strain with natural signaling pathway (yMJ194/pDR01),~20 A.U.
same,EC50,"AfuSte2 [5]; read-out: EC50 value (concentration of peptide required for half-maximal activation), AfuSte2 on plasmid, inducible mCherry in optimized strain, FIG. 1B",~100 nM
GARLTNFGYFEPG [CaPep2A],Hill Slope,CaSte2 [6],1.4 ± 0.3
same,Hill Slope,"[7]; CaSte2 + CaBar1 (yBB02), Hill function best-fit ± standard error",1.6 ± 0.3
same,EC50,"[7]; biosensor with protease CaBar1 under intermediate pRPL18B promoter, 10-h incubation",~40 nM
same,cleavage by CaBar1 protease,[7]; judged from CaSte2 activation with/without CaBar1,does not cleave
same,EC50,[8],~1 nM
same,color development in yeast pellets,CaSte2 [9],robust orange color development
VSDRVKQMLSHWWNERNPDTANL [SjPep],EC50,[10],> 100000 nM
"WCWLPGQGC [A. terreus peptide, A. terreus pheromone peptide]",cross-reaction with S. cerevisiae GPCR,S. cerevisiae GPCR,cross-reacted
